Experimental data from patent US9247738B2, “Method and composition for inhibition of microbial growth in aqueous food transport and process streams” (Ecolab USA Inc., priority 2000, dated 2016).

How the values were obtained:
Type in all cases: cell-based
Candida parapsilosis = assay: Rate of fungus kill in use-solution; conditions: 80 ppm total peracid, 25° C.
Protocol: (§1) Routine transfer to Sabouraud Dextrose agar slants maintained cultures of Candida parapsilosis (from blueberry processing water), Rhodotorula species (from celery processing water), Cryptococcus species (from potato processing water) and Zygosaccharomyces bailii (ATCC 60483). Growth was harvested by adding 5 mL of phosphate buffered water to the slant, mixing and then transferring the suspension into 90 mL of phosphate buffered water. The resulting suspension was used for testing.
(§2) Two antimicrobial agents were used for testing. The first agent contained peroxyacetic acid. The second contained a peroxyacetic acid/peroxyoctanoic acid mixture. Both agents were diluted in sterile deionized water to achieve a total peracid concentration of 80 ppm. The composition of the use-solutions were as follows:
(§3) The rate at which peroxyacetic acid and a peroxyacetic acid/peroxyoctanoic acid mixture killed fungi was measured by inoculating use-solutions of each antimicrobial agent with fungi and then quantifying survivors after various exposure times.
(§4) Testing was performed in duplicate. 99 mL of each antimicrobial use-solution was transferred to a 250 mL Erlenmeyer flask and allowed to equilibrate to 25° C. The liquid in the flask was swirled vigorously in a rapid circular motion and 1 mL of a fungus suspension was added. After 30 seconds, 2, 5 or 10 minutes 1 mL quantities of the use-solution were transferred to 9 mL of an inactivating solution including 0.1% sodium thiosulfate. 1 mL quantities of the inactivating solution were pour-plated using Sabouraud Dextrose agar. Serial 100-fold dilutions of the inactivating solution were also plated. Agar plates were incubated for 72 hours at 26° C. before counting survivors. The log reduction of fungi due to the antimicrobial agent was determined by comparing reduction to a water control.

Cryptococcus species = assay: Rate of fungus kill in use-solution; conditions: Cryptococcus sp., 80 ppm total peracid, 25° C.
Protocol: as §1, §2, §3, §4

Rhodotorula species = assay: Rate of fungus kill in use-solution; conditions: Rhodotorula sp., 80 ppm total peracid, 25° C.
Protocol: as §1, §2, §3, §4

[1] = test system: Zygosaccharomyces bailii (ATCC 60483); assay: Rate of fungus kill in use-solution; conditions: Z. bailii, 80 ppm total peracid, 25° C.
Protocol: as §1, §2, §3, §4

Aspergillus species = assay: Rate of fungus kill in use-solution (mold conidia); conditions: Aspergillus sp., 80 ppm total peracid, 25° C.
Protocol: (§5) Routine transfer to Sabouraud Dextrose agar slants maintained cultures of Aspergillus species (from onion processing water), Penicillium species (from celery processing water) and Cladosporium species (from potato processing water). Conidia suspensions of each mold were prepared by subculturing each mold to Sabouraud Dextrose agar plates and incubating until thick aerial mycelia with conidia were evident. Conidia were harvested by adding approximately 10 mL of phosphate buffered water to the plate, scraping the mycelia and collecting the suspension in a flask. The suspension was filtered through sterile gauze to remove large mycelia fragments from the conidia. The resulting suspension was used for testing.
as §2, §3, §4

Cladosporium species = assay: Rate of fungus kill in use-solution (mold conidia); conditions: Cladosporium sp., 80 ppm total peracid, 25° C.
Protocol: as §5, §2, §3, §4

Penicillium species = assay: Rate of fungus kill in use-solution (mold conidia); conditions: Penicillium sp., 80 ppm total peracid, 25° C.
Protocol: as §5, §2, §3, §4

total aerobic bacteria = assay: Antimicrobial efficacy in fresh-cut vegetable processing water, Aerobic Plate Count
Protocol: (§6) Vegetable processing water testing was done using the same antimicrobial agents as in laboratory aqueous system testing. The varying concentrations of each agent are listed in the results section. Municipal tap water was the diluent.
(§7) The reduction of microorganisms in vegetable processing water treated with peroxyacetic acid or a peroxyacetic acid/peroxyoctanoic acid mixture was determined. Testing was done in two separate recycled water systems. In both systems, cut vegetables fell into a water stream that carried them to a de-watering area where they were collected for further processing. The water that the vegetables traveled in was routed to a balance tank that fed back into the original water stream thus completing the process loop. One system was used to wash cut, raw celery or cabbage. The other system was used to transport cut, raw potatoes to a blancher.
(§8) During processing of each vegetable, 10 water samples were collected in sterile plastic bags containing an inactivating agent (0.01% sodium thiosulfate). 1 mL quantities were plated on Petrifilm® (3M, Inc.) Aerobic Plate Count, Coliform Count and Yeast & Mold Count media. Validation of these media using this procedure was performed prior to initiating testing (data not presented). Serial 100-fold dilutions were also plated. Petrifilms were incubated at 35° C. for 24 hours (Coliform Count), 35° C. for 48 hours (Aerobic Plate Count), or at room temperature for 72 hours (Yeast & Mold Count). The number of microorganisms was counted following incubation.
(§9) The same analysis was used to evaluate the significance of reduction on vegetable surfaces.

coliform bacteria [2] = assay: Antimicrobial efficacy in fresh-cut vegetable processing water, Coliform Count
Protocol: as §6, §7, §8, §9

yeast and mold = assay: Antimicrobial efficacy in fresh-cut vegetable processing water, Yeast & Mold Count
Protocol: as §6, §7, §8, §9

Aerobic Bacteria = assay: Antimicrobial efficacy on fresh-cut vegetables, aerobic bacteria; conditions: 30 second exposure to process water
Protocol: as §6, §7
(§10) Microorganism reduction on vegetable surfaces in the transport and process water was determined while water analyses were being conducted. Ten samples of each cut vegetable were collected just prior to falling into the process water stream and just after de-watering.
(§11) Eleven grams of each sample were transferred to bag containing 99 mL of sterile phosphate buffered water. Contents of the bag were mixed in a Stomacher brand mixer for approximately 1 minute. Afterwards, 1 mL of the mixture was plated on Petrifilm brand Aerobic Plate Count, Coliform Count and Yeast & Mold Count media. 1 mL quantities of 100-fold serial dilutions were also plated. Petrifilms were incubated and enumerated as described above in this Example.
as §9

coliform bacteria [3] = assay: Antimicrobial efficacy on fresh-cut vegetables, coliform bacteria; conditions: 30 second exposure to process water
Protocol: as §6, §7, §10, §11, §9

Yeast & Mold = assay: Antimicrobial efficacy on fresh-cut vegetables, yeast & mold; conditions: 30 second exposure to process water
Protocol: as §6, §7, §10
Eleven grams of each sample were transferred to bag containing 99 mL of sterile phosphate buffered water. Contents of the bag were mixed in a Stomacher brand mixer for approximately 1 minute. […] 1 mL quantities of 100-fold serial dilutions were also plated. […]

Escherichia coli O157:H7 = assay: Kill of pathogenic bacteria on tomato surfaces and in the wash solution
Protocol: (§12) The following procedure was employed for determining whether a composition killed pathogenic bacteria (e.g. Escherichia coli O157:H7, Listeria monocytogenes, or Salmonella javiana) on the surface of a fruit or vegetable. Bacteria were applied to tomato surfaces and allowed a 1-2 hour attachment time. Contaminated tomatoes were submersed in a peroxyacetic/peroxyoctanoic acid mixture according to the present invention (at a level yielding 40 ppm peroxyacetic acid) or water for 1 minute without agitation. After 1 minute, tomatoes were transferred to a solution that neutralized the peroxy acids and peroxides and massaged for 3 minutes to remove attached bacteria. The number of attached bacteria that survived treatment was determined using standard agar plating technique. The number of bacteria that “fell off” the tomato into the water or peroxyacetic/peroxyoctanoic acid mixture according to the present invention, and survived, was also determined by neutralization and agar plating technique. A similar experiment was conducted employing a peroxyacetic acid antimicrobial composition.

Salmonella javiana = assay: as above
Protocol: as §12

Listeria monocytogenes = assay: as above
Protocol: The following procedure was employed for determining whether a composition killed pathogenic bacteria (e.g. Escherichia coli O157:H7, Listeria monocytogenes, or Salmonella javiana) on the surface of a fruit or vegetable. Bacteria were applied to tomato surfaces and allowed a 1-2 hour attachment time. […] After 1 minute, tomatoes were transferred to a solution that neutralized the peroxy acids and peroxides and massaged for 3 minutes to remove attached bacteria. The number of attached bacteria that survived treatment was determined using standard agar plating technique. The number of bacteria that “fell off” the tomato into the water or peroxyacetic/peroxyoctanoic acid mixture according to the present invention, and survived, was also determined by neutralization and agar plating technique. A similar experiment was conducted employing a peroxyacetic acid antimicrobial composition.

[4] = Cabbage process water, average peracid from POAA agent 26 ppm, from POAA/POOA agent 29 ppm
[5] = Celery process water, average peracid from POAA agent 38 ppm, from POAA/POOA agent 39 ppm
[6] = Potatoes process water, average peracid from POAA agent 54 ppm, from POAA/POOA agent 32 ppm
[7] = Cabbage, peracid POAA agent 26 ppm, POAA/POOA agent 29 ppm
[8] = Celery, peracid POAA agent 38 ppm, POAA/POOA agent 39 ppm
[9] = Potatoes, peracid POAA agent 54 ppm, POAA/POOA agent 32 ppm

SMILES: CC(=O)OO [POAA, peroxyacetic acid]
- Average log reduction of yeast (Candida parapsilosis; 2 Minutes): 1.49 log
- Average log reduction of yeast (Candida parapsilosis; 5 Minutes): 3.42 log
- Average log reduction of yeast (Candida parapsilosis; 30 Seconds): 0.34 log
- Average log reduction of yeast (Cryptococcus species; 2 Minutes): >7.08 log
- Average log reduction of yeast (Cryptococcus species; 5 Minutes): >7.08 log
- Average log reduction of yeast (Cryptococcus species; 30 Seconds): >7.08 log
- Average log reduction of yeast (Rhodotorula species; 2 Minutes): >3.88 log
- Average log reduction of yeast (Rhodotorula species; 5 Minutes): >3.88 log
- Average log reduction of yeast (Rhodotorula species; 30 Seconds): >3.88 log
- Average log reduction of yeast ([1]; 2 Minutes): 0.18 log
- Average log reduction of yeast ([1]; 5 Minutes): 0.94 log
- Average log reduction of yeast ([1]; 30 Seconds): 0.16 log
- Average log reduction of mold (Aspergillus species; 2 Minutes): 0 log
- Average log reduction of mold (Aspergillus species; 5 Minutes): 0 log
- Average log reduction of mold (Aspergillus species; 10 Minutes): 0 log
- Average log reduction of mold (Cladosporium species; 2 Minutes): 1.86 log
- Average log reduction of mold (Cladosporium species; 5 Minutes): 4.18 log
- Average log reduction of mold (Cladosporium species; 10 Minutes): >4.18 log
- Average log reduction of mold (Penicillium species; 2 Minutes): 0 log
- Average log reduction of mold (Penicillium species; 5 Minutes): 0.45 log
- Average log reduction of mold (Penicillium species; 10 Minutes): 1.52 log
- Average number of microorganisms in process water, Aerobic Plate Count (total aerobic bacteria; [4]): 1.92 log CFU/mL
- Average number of microorganisms in process water, Aerobic Plate Count (total aerobic bacteria; [5]): 2.02 log CFU/mL
- Average number of microorganisms in process water, Aerobic Plate Count (total aerobic bacteria; [6]): 0.92 log CFU/mL
- Average number of microorganisms in process water, Coliform Count (coliform bacteria [2]; [4]): 0 log CFU/mL
- Average number of microorganisms in process water, Coliform Count (coliform bacteria [2]; [5]): 0 log CFU/mL
- Average number of microorganisms in process water, Coliform Count (coliform bacteria [2]; [6]): 0 log CFU/mL
- Average number of microorganisms in process water, Yeast & Mold Count (yeast and mold; [4]): 2.02 log CFU/mL
- Average number of microorganisms in process water, Yeast & Mold Count (yeast and mold; [5]): 1.86 log CFU/mL
- Average number of microorganisms in process water, Yeast & Mold Count (yeast and mold; [6]): 5.48 log CFU/mL
- Average log reduction on fresh-cut vegetables, Aerobic Bacteria Reduction (Aerobic Bacteria; [7]): 0.84 log
- Average log reduction on fresh-cut vegetables, Aerobic Bacteria Reduction (Aerobic Bacteria; [8]): 1.07 log
- Average log reduction on fresh-cut vegetables, Aerobic Bacteria Reduction (Aerobic Bacteria; [9]): 1.54 log
- Average log reduction on fresh-cut vegetables, Coliform Bacteria Reduction (coliform bacteria [3]; [7]): >0.88 log
- Average log reduction on fresh-cut vegetables, Coliform Bacteria Reduction (coliform bacteria [3]; [8]): 0.77 log
- Average log reduction on fresh-cut vegetables, Coliform Bacteria Reduction (coliform bacteria [3]; [9]): >1.58 log
- Average log reduction on fresh-cut vegetables, Yeast & Mold Reduction (Yeast & Mold; [7]): 0.77 log
- Average log reduction on fresh-cut vegetables, Yeast & Mold Reduction (Yeast & Mold; [8]): 0.68 log
- reduction in the E. coli O157:H7 in tomato wash water (Escherichia coli O157:H7; 20 ppm POAA): 57%
- reduction in the E. coli O157:H7 in tomato wash water (Escherichia coli O157:H7; 40 ppm POAA): 88%
- reduction in the E. coli O157:H7 in tomato wash water (Escherichia coli O157:H7; 60 ppm POAA): 94%
- reduction in amounts of S. javiana (Salmonella javiana; 20 ppm POAA): no reduction
- reduction in amounts of S. javiana (Salmonella javiana; 40 ppm POAA): no reduction
- reduction in amounts of S. javiana (Salmonella javiana; 60 ppm POAA): 91%
- reduction of L. monocytogenes on tomatoes (Listeria monocytogenes; 20 ppm POAA): 84%
- reduction of L. monocytogenes on tomatoes (Listeria monocytogenes; 40 ppm POAA): 95%
- reduction of L. monocytogenes on tomatoes (Listeria monocytogenes; 60 ppm POAA): 98%
